Data on six compounds can be found in DBAASP.

Among the test systems are Staphylococcus aureus; Acinetobacter baumannii; Yersinia ruckeri MT252; Escherichia coli MG1655; Bacillus subtilis 168 HT.
Common to all, as to experiment: ≥ marks a high value that may be exact or a test limit, other limits are often not marked, values filed in µg/mL are converted to µM
Test [1] relates to Staphylococcus aureus ATCC 25923.
Test [2] concerns Staphylococcus epidermidis ATCC 1435.
For test [3], the system named is Pseudomonas aeruginosa ATCC 10662.
Test [4] deals with Escherichia coli ATCC 25922.
The subject of test [5] is Vibrio anguillarum MT1741.
The test system of test [6] is Aeromonas salmonicida MT004.
Test [7] has as its system Lactococcus garvieae MT2055.
For test [8], the system named is Escherichia coli NCIMB 12260.
For test [9], the system named is Vibrio anguillarum MT1742.
For test [10], the system named is Aeromonas salmonicida MT423.
Test [11] relates to Lactococcus garvieae MT2291.
The subject of test [12] is Candida albicans ATCC 10231.
Test [13] relates to Cryptococcus neoformans ATCC 32045.
For test [14], the system named is Pseudomonas aeruginosa ATCC 10145.
Test [15] concerns Staphylococcus aureus ATCC 33591.
Test [16] has as its system Escherichia coli ATCC 2592.
Test [17] has as its system Staphylococcus epidermidis KCTC 1917.
Test [18] deals with Pseudomonas aeruginosa ATCC 15692.
Test [19] concerns Listeria monocytogenes KCTC 19111.
In test [20] the test system is Salmonella typhimurium KCTC 1926.
Test [21] relates to Bacillus subtilis ATCC 6633.
The subject of test [22] is Salmonella enterica subsp. enterica serovar Enteritidis BNCC 103134.

Values after ≈ are worked out from the molar mass of the structure shown.

As for `CC[C@H](C)[C@H](NC(=O)[C@H](Cc1cnc[nH]1)NC(=O)[C@H](Cc1cnc[nH]1)NC(=O)[C@H](Cc1ccccc1)NC(=O)[C@@H](N)Cc1ccccc1)C(=O)N[C@@H](Cc1ccccc1)C(=O)N[C@@H](CCCN=C(N)N)C(=O)NCC(=O)N[C@@H](CCCCN)C(=O)N[C@H](C(=O)N[C@@H](Cc1cnc[nH]1)C(=O)N[C@H](C(=O)NCC(=O)N[C@@H](CCCCN)C(=O)N[C@H](C(=O)N[C@H](C(=O)N[C@@H](Cc1cnc[nH]1)C(=O)N[C@@H](CCCN=C(N)N)C(=O)N[C@@H](CC(C)C)C(=O)N[C@H](C(=O)N[C@H](C(=O)NCC(N)=O)[C@@H](C)O)C(C)C)[C@@H](C)CC)[C@@H](C)O)C(C)C)C(C)C` [FFHHIFRGKVHVGKTIHRLVTG], the MIC in the test on Staphylococcus aureus turned out to be 2.4 µM (≈ 6.2 µg/mL); in test [1], 1.2 µM (≈ 3.1 µg/mL); in the test on Acinetobacter baumannii, 1.2 µM (≈ 3.1 µg/mL); in test [2], 1.2 µM (≈ 3.1 µg/mL); in test [3] it was 9.66 µM (≈ 25 µg/mL); in [4] it was 1.2 µM (≈ 3.1 µg/mL).

Regarding `CC[C@H](C)[C@H](NC(=O)CNC(=O)[C@H](CCCCN)NC(=O)[C@@H](NC(=O)[C@@H](NC(=O)[C@H](Cc1cnc[nH]1)NC(=O)[C@H](Cc1cnc[nH]1)NC(=O)[C@@H](NC(=O)[C@@H](N)Cc1ccccc1)[C@@H](C)CC)[C@@H](C)CC)[C@@H](C)CC)C(=O)N[C@@H](Cc1ccccc1)C(=O)N[C@@H](Cc1cnc[nH]1)C(=O)N[C@H](C(=O)NCC(=O)N[C@@H](CCCCN)C(=O)N[C@@H](CCSC)C(=O)N[C@H](C(=O)N[C@@H](Cc1cnc[nH]1)C(=O)N[C@@H](CO)C(=O)N[C@@H](C)C(=O)N[C@H](C(=O)N[C@@H](CC(N)=O)C(=O)N[C@@H](CCCN=C(N)N)C(=O)N[C@@H](CCCN=C(N)N)C(=O)N[C@@H](CCCN=C(N)N)C(=O)N[C@@H](Cc1cnc[nH]1)C(=O)O)[C@@H](C)CC)[C@@H](C)CC)[C@@H](C)CC` [FIHHIIKGIFHIGKMIHSAINRRRH], the MIC (in test [5]; in [6]; in test [7]; in test [8]; in the test on Yersinia ruckeri MT252; in test [9]) was 0.528 µM (≈ 1.6 µg/mL) each time. For the same compound, the MIC in [10] and in test [11] was 0.528 µM (≈ 1.6 µg/mL) throughout.

Regarding `CC[C@H](C)[C@H](N)C(=O)N[C@@H](CCCCN)C(=O)N[C@H](C(=O)N[C@H](C(=O)N[C@@H](C)C(=O)N1CCC[C@H]1C(=O)N[C@@H](CCCCN)C(=O)N[C@@H](CCCCN)C(=O)N[C@H](C(=O)N[C@@H](CCCCN)C(=O)N[C@@H](CC(C)C)C(=O)O)[C@@H](C)CC)C(C)C)[C@@H](C)CC` [IKIVAPKKIKL], the minimal inhibitory concentration (MIC) against Escherichia coli MG1655 and against Bacillus subtilis 168 HT was at least 102 µM throughout.

As for `C[C@H](NC(=O)[C@H](Cc1ccccc1)NC(=O)[C@H](CCCCN)NC(=O)[C@H](CCCCN)NC(=O)[C@H](C)NC(=O)[C@H](Cc1ccccc1)NC(=O)[C@H](CCCCN)NC(=O)[C@H](CCCCN)NC(=O)[C@H](C)NC(=O)[C@H](Cc1ccccc1)NC(=O)[C@H](CCCCN)NC(=O)[C@H](CCCCN)NC(=O)[C@H](C)NC(=O)[C@H](Cc1ccccc1)NC(=O)[C@H](CCCCN)NC(=O)[C@H](CCCCN)NC(=O)[C@H](C)NC(=O)[C@H](Cc1ccccc1)NC(=O)[C@H](CCCCN)NC(=O)[C@H](CCCCN)NC(=O)[C@H](C)NC(=O)[C@H](Cc1ccccc1)NC(=O)[C@H](CCCCN)NC(=O)[C@H](CCCCN)NC(=O)[C@H](C)NC(=O)[C@H](Cc1ccccc1)NC(=O)[C@@H](N)CCCCN)C(=O)N[C@@H](CCCCN)C(=O)O` [KFAKKFAKKFAKKFAKKFAKKFAKKFAK], the minimal inhibitory concentration (MIC) in test [12] was 33.5 µM (≈ 112 µg/mL); in test [13] it was 13.3 µM (≈ 44.5 µg/mL); in [14], 4.79 µM (≈ 16 µg/mL); in [15], at least 74.8 µM; in test [16] it was 13.3 µM (≈ 44.5 µg/mL).

`NCCCC[C@H](NC(=O)[C@H](Cc1ccc(O)cc1)NC(=O)[C@H](Cc1c[nH]c2ccccc12)NC(=O)[C@H](CCCCN)NC(=O)[C@H](CCCCN)NC(=O)[C@H](Cc1ccc(O)cc1)NC(=O)[C@H](Cc1c[nH]c2ccccc12)NC(=O)[C@H](CCCCN)NC(=O)[C@H](CCCCN)NC(=O)[C@H](Cc1ccc(O)cc1)NC(=O)[C@H](Cc1c[nH]c2ccccc12)NC(=O)[C@H](CCCCN)NC(=O)[C@H](CCCCN)NC(=O)[C@H](Cc1ccc(O)cc1)NC(=O)[C@H](Cc1c[nH]c2ccccc12)NC(=O)[C@@H](N)CCCCN)C(N)=O` [KWYKKWYKKWYKKWYK]: the MIC in test [17] was 1 µM (≈ 2.44 µg/mL); in test [1], 2 µM (≈ 4.88 µg/mL); in [18], 2 µM (≈ 4.88 µg/mL); in test [19], 1 µM (≈ 2.44 µg/mL); in test [20] it was 2 µM (≈ 4.88 µg/mL); in [4], 1 µM (≈ 2.44 µg/mL).

Consider `C[C@@H](O)[C@H](NC(=O)[C@H](Cc1ccccc1)NC(=O)[C@H](CO)NC(=O)[C@@H](NC(=O)[C@@H]1CCCN1C(=O)[C@@H](N)Cc1c[nH]c2ccccc12)[C@@H](C)O)C(=O)O` [WPTSFT], for which the minimum inhibitory concentration (MIC) was at least 300 µM in test [21], 300 µM (≈ 221 µg/mL) in [1], at least 350 µM in test [22] and 200 µM (≈ 148 µg/mL) in test [4].
